Test results: PMC10611578, “Aβ1-6A2V(D) peptide, effective on Aβ aggregation, inhibits tau misfolding and protects the brain after traumatic brain injury” (Molecular Psychiatry, 2023)
Square brackets hold non-standard residues; d marks the D form. Peptide text beside a SMILES is read from it.

System: tau (P301L mouse brain homogenate)
Assay: Western blot of total tau level in P301L brain lysate
Assay type: biochemical, human tau with P301L mutation, JNPL3 mice
Conditions: 50 µM, 2 h at 25 °C, 30 µg protein/100 µL, PBS pH 7.4, DAKO/actin band; mean ± SD, N = 3, p < 0.05
Excerpt: Male JNPL3 mice expressing 0N4R human tau with the P301L mutation (P301L) were obtained from Taconic Biosciences (New York, USA) (Tau Model 2508). Controls were non-transgenic (Non-tg) male mice with the same mixed C57BL/6, DBA/2, SW genetic background as P301L mice. Triple transgenic mice harboring human PS1(M146 V), APP(SW), and MAPT(P301L) transgenes, referred to as 3xTg-AD, were kindly provided by Dr. Oddo [34]. Male and female C57BL/6 J mice, referred to as wild type (WT), were purchased from Envigo (Italy).
Fig. 2 Effect of Aβ1-6A2V-TAT(D) on the toxicity caused in C. elegans by misfolded tau in P301L and TBI brain homogenates. A Brains from P301L mice were homogenized in 10 mM PBS, pH 7.4, and given to worms alone or in the presence of Aβ1-6A2V-TAT(D). B Worms were administered with brain homogenate (30 µg protein/100 worms/100 µL) in the absence or presence of Aβ1-6A2V-TAT(D) (0-200 µM). […] E Representative western blotting showing the total level of tau and tau quantification expressed as the mean volume of the DAKO band immunoreactivity/actin band. […] The reaction was then stopped, and samples were analyzed by western blot. […]
Lysates from brain homogenates of P301L mice (30 µg protein/100 µL) incubated for 2 h at 25°C with 50 µM Aβ1-6A2V-TAT(D), 50 µM Aβ1-6A2V(D), 50 µM TAT or 10 mM PBS, pH 7.4, were analyzed by immunoblotting using 10% SDS-PAGE gel and Western blotting analysis. […]

CC(C)[C@@H](NC(=O)[C@H](N)CC(=O)O)C(=O)N[C@H](CCC(=O)O)C(=O)N[C@H](Cc1ccccc1)C(=O)N[C@H](CCCNC(=N)N)C(=O)N[C@H](Cc1c[nH]cn1)C(=O)NCC(=O)NCC(=O)NCC(=O)NCC(=O)NCC(=O)N[C@H](CCCNC(=N)N)C(=O)N[C@H](CCCCN)C(=O)N[C@H](CCCCN)C(=O)N[C@H](CCCNC(=N)N)C(=O)N[C@H](CCCNC(=N)N)C(=O)N[C@H](CCC(N)=O)C(=O)N[C@H](CCCNC(=N)N)C(=O)N[C@H](CCCNC(=N)N)C(=O)N[C@H](CCCNC(=N)N)C(=O)O [Aβ1-6A2V-TAT(D)] (H-[dD][dV][dE][dF][dR][dH]GGGGG[dR][dK][dK][dR][dR][dQ][dR][dR][dR]-OH; N-terminus assumed)
Total tau protein level in P301L brain homogenate: significantly reduced the tau protein level
